Source: patent US10450549B2, “Aryloxyphenoxypropionate tolerance in turfrgass species and use of AAD1 as a selectable marker” (Dow AgroSciences, LLC, priority 2004, dated 2019)

Experiments:
[1] = tested on: AAD1 (v3)-transformed T1 Arabidopsis; test: T1 Arabidopsis response to postemergence herbicide (2,4-D, dichlorprop, haloxyfop, fluroxypyr), % visual injury 2 WAT: AAD1 (v3) transformants; assay type: in vivo, Arabidopsis thaliana
Protocol: Freshly harvested T1 seed (transformed with native [AAD1 (v2)] or plant optimized [AAD1 (v3)] gene) was allowed to dry for 7 days at room temperature. T1 seed was sown in 26.5×51-cm germination trays (T.O. Plastics Inc., Clearwater, Minn.), each receiving a 200 mg aliquots of stratified T1 seed (˜10,000 seed) that had previously been suspended in 40 ml of 0.1% agarose solution and stored at 4° C. for 2 days to complete dormancy requirements and ensure synchronous seed germination.
Sunshine Mix LP5 (Sun Gro Horticulture Inc., Bellevue, Wash.) was covered with fine vermiculite and subirrigated with Hoagland's solution until wet, then allowed to gravity drain. Each 40 ml aliquot of stratified seed was sown evenly onto the vermiculite with a pipette and covered with humidity domes (KORD Products, Bramalea, Ontario, Canada) for 4-5 days. Domes were removed 1 day prior to initial transformant selection using glufosinate postemergence spray (selecting for the co-transformed PAT gene).
Five to six days after planting (DAP) and again 10 DAP, T1 plants (cotyledon and 2-4-1f stage, respectively) were sprayed with a 0.2% solution of Liberty herbicide (200 g ai/L glufosinate, Bayer Crop Sciences, Kansas City, Mo.) at a spray volume of 10 ml/tray (703 L/ha) using a DeVilbiss compressed air spray tip to deliver an effective rate of 280 g ai/ha glufosinate per application. Survivors (plants actively growing) were identified 5-7 days after the final spraying and transplanted individually into 3-inch pots prepared with potting media (Metro Mix 360). Transplanted plants were covered with humidity domes for 3-4 days and placed in a 22° C. growth chamber as before. Domes were subsequently removed and plants moved to the greenhouse (22+5° C., 50+30% RH, 14 h light:10 dark, minimum 500 μE/m^2s^1 natural+supplemental light) at least 1 day prior to testing for the ability of AAD1 (v3) (plant optimized gene) or AAD1 (v2) (native microbial gene) to provide phenoxy auxin herbicide resistance.
(§1) Random individual T1 plants selected for glufosinate resistance above were confirmed for expression of the PAT protein using a PAT ELISA kit (Part no. 7000045, Strategic Diagnostics, Inc., Newark, Del.) to non-destructively confirm fidelity of selection process (manufacturer's protocol). Plants were then randomly assigned to various rates of phenoxy herbicides (dichlorprop or 2,4-D). […] Elevated rates were applied in subsequent trials (50, 200, 800, or 3200 g ae/ha).
(§2) All auxin herbicide applications were made using the DeVilbiss sprayer as described above to apply 703 L/ha spray volume (0.4 ml solution/3-inch pot) or applied by track sprayer in a 187 L/ha spray volume. […] Dichlorprop used was technical grade (Sigma, St. Louis, Mo.) dissolved in DMSO and diluted in water (<1% DMSO final concentration). As herbicide rates increased beyond 800 g ae/ha, the pH of the spray solution became exceedingly acidic, burning the leaves of young, tender Arabidopsis plants and complicating evaluation of the primary effects of the herbicides. It became standard practice to apply these high rates of phenoxy herbicides in 200 mM Tris buffer (pH 9.0) to a final pH of ˜7-8.
(§3) Although Arabidopsis, being a dicot, is not an optimal system for testing ACCase-inhibiting AOPP grass herbicides, AAD1 (v3)-transformed T1 plants were subjected to elevated rates (400-1600 g ae/ha) of RS-haloxyfop acid (internally synthesized) that do cause growth abnormalities and death of wildtype Arabidopsis using the DeVilbiss sprayer as described above. Injury ratings were taken 7 and 14 days after treatment. Likewise, T1 individuals were treated with the pyridyloxyacetate auxin herbicide, fluroxypyr.
Table 16. […] Response is presented in terms of % visual injury 2 WAT. […] Since each T1 is an independent transformation event, one can expect significant variation of individual T1 responses within a given rate. An arithmetic mean and standard deviation is presented for each treatment. […]

Wildtype Arabidopsis = test: T1 Arabidopsis spray test, % visual injury 2 WAT: wildtype control; assay type: in vivo, Arabidopsis thaliana
From the text: as §1, §2, §3
Table 16. […] Response is presented in terms of % visual injury 2 WAT. […] Since each T1 is an independent transformation event, one can expect significant variation of individual T1 responses within a given rate. An arithmetic mean and standard deviation is presented for each treatment. The range in individual response is also indicated in the last column for each rate and transformation. PAT/Cry1F-transformed Arabidopsis served as an auxin-sensitive transformed control. Wildtype Arabidopsis is untransformed.
(§4) Table 17. T1 Arabidopsis response to a range of dichlroprop rates applied postemergence. Response is presented in terms of % visual injury 2 WAT. […] Since each T1 is an independent transformation event, one can expect significant variation of individual T1 responses within a given rate. An arithmetic mean and standard deviation is presented for each treatment. The range in individual response is also indicated in the last column for each rate and transformation. PAT/Cry1F-transformed Arabidopsis served as an auxin-sensitive transformed control. Wildtype Arabidopsis is untransformed.
as §4, with “18.” for “17.”, “haloxyfop” for “dichlroprop”, “postemergence at artificially high rates attempting to show tolerance of the dicot Arabidopsis to the graminicide.” for “postemergence.”

[2] = haloxyfop 400-1,600 g ae/ha; fluroxypyr
[3] = number of individuals; 100 g ae/ha; AAD1 v3; 2 WAT
[4] = number of individuals; 200 g ae/ha; AAD1 v3; 2 WAT
[5] = number of individuals; 400 g ae/ha; AAD1 v3; 2 WAT
[6] = number of individuals; 800 g ae/ha; AAD1 v3; 2 WAT
[7] = number of individuals; 1600 g ae/ha; AAD1 v3; 2 WAT
[8] = number of individuals; 100 g ae/ha; Wildtype; 2 WAT
[9] = number of individuals; 200 g ae/ha; Wildtype; 2 WAT
[10] = number of individuals; 400 g ae/ha; Wildtype; 2 WAT
[11] = number of individuals; 800 g ae/ha; Wildtype; 2 WAT
[12] = number of individuals; 1600 g ae/ha; Wildtype; 2 WAT

CC(Oc1ccc(Oc2ncc(C(F)(F)F)cc2Cl)cc1)C(=O)O (stereo not drawn) [haloxyfop]
% Injury Ave ([1]; 100 g ae/ha; AAD1 v3; 2 WAT): 0.0%
% Injury Range ([1]; 100 g ae/ha; AAD1 v3; 2 WAT): 0%
% Injury Ave ([1]; 200 g ae/ha; AAD1 v3; 2 WAT): 0.0%
% Injury Range ([1]; 200 g ae/ha; AAD1 v3; 2 WAT): 0%
% Injury Ave ([1]; 400 g ae/ha; AAD1 v3; 2 WAT): 6.3%
% Injury Range ([1]; 400 g ae/ha; AAD1 v3; 2 WAT): 0-20%
% Injury Ave ([1]; 800 g ae/ha; AAD1 v3; 2 WAT): 46.3%
% Injury Range ([1]; 800 g ae/ha; AAD1 v3; 2 WAT): 0-85%
% Injury Ave ([1]; 1600 g ae/ha; AAD1 v3; 2 WAT): 65.0%
% Injury Range ([1]; 1600 g ae/ha; AAD1 v3; 2 WAT): 0-100%
resistance/tolerance in AAD1 (v3)-transformed T1 Arabidopsis [1, 2]: increased tolerance
% Injury 20-40% [1, 3]: 0
% Injury <20% [1, 3]: 4
% Injury >40% [1, 3]: 0
% Injury 20-40% [1, 4]: 0
% Injury <20% [1, 4]: 4
% Injury >40% [1, 4]: 0
% Injury 20-40% [1, 5]: 1
% Injury <20% [1, 5]: 3
% Injury >40% [1, 5]: 0
% Injury 20-40% [1, 6]: 1
% Injury <20% [1, 6]: 1
% Injury >40% [1, 6]: 2
% Injury 20-40% [1, 7]: 0
% Injury <20% [1, 7]: 1
% Injury >40% [1, 7]: 3
% Injury Ave (Wildtype Arabidopsis; 100 g ae/ha; Wildtype; 2 WAT): 0.0%
% Injury Range (Wildtype Arabidopsis; 100 g ae/ha; Wildtype; 2 WAT): 0%
% Injury Ave (Wildtype Arabidopsis; 200 g ae/ha; Wildtype; 2 WAT): 0.0%
% Injury Range (Wildtype Arabidopsis; 200 g ae/ha; Wildtype; 2 WAT): 0%
% Injury Ave (Wildtype Arabidopsis; 400 g ae/ha; Wildtype; 2 WAT): 20.0%
% Injury Range (Wildtype Arabidopsis; 400 g ae/ha; Wildtype; 2 WAT): 20%
% Injury Ave (Wildtype Arabidopsis; 800 g ae/ha; Wildtype; 2 WAT): 73.3%
% Injury Range (Wildtype Arabidopsis; 800 g ae/ha; Wildtype; 2 WAT): 70-85%
% Injury Ave (Wildtype Arabidopsis; 1600 g ae/ha; Wildtype; 2 WAT): 93.3%
% Injury Range (Wildtype Arabidopsis; 1600 g ae/ha; Wildtype; 2 WAT): 80-100%
% Injury 20-40% (Wildtype Arabidopsis; [8]): 0
% Injury <20% (Wildtype Arabidopsis; [8]): 3
% Injury >40% (Wildtype Arabidopsis; [8]): 0
% Injury 20-40% (Wildtype Arabidopsis; [9]): 0
% Injury <20% (Wildtype Arabidopsis; [9]): 3
% Injury >40% (Wildtype Arabidopsis; [9]): 0
% Injury 20-40% (Wildtype Arabidopsis; [10]): 3
% Injury <20% (Wildtype Arabidopsis; [10]): 0
% Injury >40% (Wildtype Arabidopsis; [10]): 0
% Injury 20-40% (Wildtype Arabidopsis; [11]): 0
% Injury <20% (Wildtype Arabidopsis; [11]): 0
% Injury >40% (Wildtype Arabidopsis; [11]): 3
% Injury 20-40% (Wildtype Arabidopsis; [12]): 0
% Injury <20% (Wildtype Arabidopsis; [12]): 0
% Injury >40% (Wildtype Arabidopsis; [12]): 3

Nc1c(Cl)c(F)nc(OCC(=O)O)c1Cl [Fluroxypyr]
resistance/tolerance in AAD1 (v3)-transformed T1 Arabidopsis [1, 2]: No resistance was observed

CC(Oc1ccc(Cl)cc1Cl)C(=O)O (racemic) [(R,S)-dichlorprop, 2,4-dichlorophenoxypropionic acid]
% Injury Ave ([1]; AAD1 v3; 12.5 g ae/ha; 2 WAT): 5.0%
% Injury Range ([1]; AAD1 v3; 12.5 g ae/ha; 2 WAT): 0-20%
individuals with 20-40% injury ([1]; AAD1 v3; 12.5 g ae/ha; 2 WAT): 1
individuals with <20% injury ([1]; AAD1 v3; 12.5 g ae/ha; 2 WAT): 7
individuals with >40% injury ([1]; AAD1 v3; 12.5 g ae/ha; 2 WAT): 0
% Injury Ave ([1]; AAD1 v3; 50 g ae/ha; 2 WAT): 3.1%
% Injury Range ([1]; AAD1 v3; 50 g ae/ha; 2 WAT): 0-25%
individuals with 20-40% injury ([1]; AAD1 v3; 50 g ae/ha; 2 WAT): 1
individuals with <20% injury ([1]; AAD1 v3; 50 g ae/ha; 2 WAT): 7
individuals with >40% injury ([1]; AAD1 v3; 50 g ae/ha; 2 WAT): 0
% Injury Ave ([1]; AAD1 v3; 200 g ae/ha; 2 WAT): 40.0%
% Injury Range ([1]; AAD1 v3; 200 g ae/ha; 2 WAT): 0-100%
individuals with 20-40% injury ([1]; AAD1 v3; 200 g ae/ha; 2 WAT): 1
individuals with <20% injury ([1]; AAD1 v3; 200 g ae/ha; 2 WAT): 4
individuals with >40% injury ([1]; AAD1 v3; 200 g ae/ha; 2 WAT): 3
% Injury Ave ([1]; AAD1 v3; 800 g ae/ha; 2 WAT): 51.9%
% Injury Range ([1]; AAD1 v3; 800 g ae/ha; 2 WAT): 20-100%
individuals with 20-40% injury ([1]; AAD1 v3; 800 g ae/ha; 2 WAT): 5
individuals with <20% injury ([1]; AAD1 v3; 800 g ae/ha; 2 WAT): 0
individuals with >40% injury ([1]; AAD1 v3; 800 g ae/ha; 2 WAT): 3
% Injury Ave (Wildtype Arabidopsis; Wildtype; 12.5 g ae/ha; 2 WAT): 13.3%
% Injury Range (Wildtype Arabidopsis; Wildtype; 12.5 g ae/ha; 2 WAT): 10-15%
individuals with 20-40% injury (Wildtype Arabidopsis; Wildtype; 12.5 g ae/ha; 2 WAT): 0
individuals with <20% injury (Wildtype Arabidopsis; Wildtype; 12.5 g ae/ha; 2 WAT): 3
individuals with >40% injury (Wildtype Arabidopsis; Wildtype; 12.5 g ae/ha; 2 WAT): 0
% Injury Ave (Wildtype Arabidopsis; Wildtype; 50 g ae/ha; 2 WAT): 53.3%
% Injury Range (Wildtype Arabidopsis; Wildtype; 50 g ae/ha; 2 WAT): 50-60%
individuals with 20-40% injury (Wildtype Arabidopsis; Wildtype; 50 g ae/ha; 2 WAT): 0
individuals with <20% injury (Wildtype Arabidopsis; Wildtype; 50 g ae/ha; 2 WAT): 0
individuals with >40% injury (Wildtype Arabidopsis; Wildtype; 50 g ae/ha; 2 WAT): 3
% Injury Ave (Wildtype Arabidopsis; Wildtype; 200 g ae/ha; 2 WAT): 95.0%
% Injury Range (Wildtype Arabidopsis; Wildtype; 200 g ae/ha; 2 WAT): 90-100%
individuals with 20-40% injury (Wildtype Arabidopsis; Wildtype; 200 g ae/ha; 2 WAT): 0
individuals with <20% injury (Wildtype Arabidopsis; Wildtype; 200 g ae/ha; 2 WAT): 0
individuals with >40% injury (Wildtype Arabidopsis; Wildtype; 200 g ae/ha; 2 WAT): 3
% Injury Ave (Wildtype Arabidopsis; Wildtype; 800 g ae/ha; 2 WAT): 100.0%
% Injury Range (Wildtype Arabidopsis; Wildtype; 800 g ae/ha; 2 WAT): 100%
individuals with 20-40% injury (Wildtype Arabidopsis; Wildtype; 800 g ae/ha; 2 WAT): 0
individuals with <20% injury (Wildtype Arabidopsis; Wildtype; 800 g ae/ha; 2 WAT): 0
individuals with >40% injury (Wildtype Arabidopsis; Wildtype; 800 g ae/ha; 2 WAT): 3
GR99 for Arabidopsis (Wildtype Arabidopsis; postemergence spray): ~200 g ae/ha
